Laboratory results reported in US20180201609A1 (AURIGENE DISCOVERY TECHNOLOGIES LIMITED, priority 2015, published 2018).
Structures can show the parent of a compound that is named as a salt.

Molecular target: T1, IRAK-4 enzyme (Homo sapiens, UniProt Q9NWZ3)
T1 construct: purchased Millipore, USA
T1 sequence (Q9NWZ3 1-460): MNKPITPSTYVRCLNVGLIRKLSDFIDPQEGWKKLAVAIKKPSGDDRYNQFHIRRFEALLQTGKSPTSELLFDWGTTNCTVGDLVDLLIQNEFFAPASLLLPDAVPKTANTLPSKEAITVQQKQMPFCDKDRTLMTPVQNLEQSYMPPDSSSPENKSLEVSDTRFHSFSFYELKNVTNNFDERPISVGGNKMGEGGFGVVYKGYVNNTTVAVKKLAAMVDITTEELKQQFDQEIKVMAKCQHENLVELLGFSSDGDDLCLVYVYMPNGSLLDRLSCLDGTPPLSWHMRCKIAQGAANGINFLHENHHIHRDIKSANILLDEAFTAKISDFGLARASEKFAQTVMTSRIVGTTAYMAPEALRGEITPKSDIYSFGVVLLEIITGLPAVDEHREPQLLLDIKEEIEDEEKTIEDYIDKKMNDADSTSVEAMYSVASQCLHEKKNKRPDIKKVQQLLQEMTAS
Assay: IRAK-4 Biochemical Assay (TR-FRET)
Conditions: recombinant IRAK-4 kinase, 20 μM ATP
Procedure: Compounds were tested for their potential to inhibit IRAK-4 enzyme in a TR-FRET assay using recombinant IRAK-4 kinase from Millipore, USA. The assay buffer was 50 mM Tris-HCl pH 7.5, 20 mM MgCl2, 1 mM EGTA, 2 mM DTT, 3 mM MnCl2 and 0.01% Tween 20.5 ng of IRAK-4 kinase was used for the assay. After pre-incubation of enzyme with test compound for 30 minutes at room temperature, a substrate mixture containing 100 nM Biotin Histone H3 (Millipore, USA) and 20 μM ATP (Sigma, USA) was added and the reaction was incubated for 30 min. Post incubation, the reaction was stopped by the addition of stop mix containing 40 mM EDTA, 1 nM of Europium-Anti-Phospho-Histone H3 (Ser10) antibody (Perkin Elmer, USA) and 20 nM SureLight Allophycocyanin-Streptavidin (Perkin Elmer, USA). The fluorescence emission at 615 nm and 665 nm were measured at an excitation of 340 nm and the percent inhibition was estimated from the ratio of the fluorescence intensities [(F665/F615)×10000].
The compounds of the present invention were screened in the above mentioned assay and the percent inhibition data is summarized in the Table 1.

| SMILES | inhibition at 0.1 µM (0.1 μM compound) [%] | inhibition at 1 µM (1 μM compound) [%] | % inhibition of IRAK-4 activity @0.1 μM (0.1 μM compound) [%] | % inhibition of IRAK-4 activity @1 μM (1 μM compound) [%] |
| --- | --- | --- | --- | --- |
| Cn1cc2cc(NC(=O)c3cccc(-c4ccc(N)nc4)n3)c(C3CC3)cc2n1 [Example 48, 6′-amino-N-(6-cyclopropyl-2-methyl-2H-indazol-5-yl)-[2,3′-bipyridine]-6-carboxamide] | 96 | 98 |  |  |
| Cn1cc2cc(NC(=O)c3cccc(-c4ccc(N)nc4)n3)c(N3CCOCC3)cc2n1 [Example 49, 6′-amino-N-(2-methyl-6-morpholino-2H-indazol-5-yl)-[2,3′-bipyridine]-6-carboxamide] | 96 | 97 |  |  |
| Cn1cc2cc(NC(=O)c3cccc(-c4ccnc(N)c4)n3)c(N3CCOCC3)cc2n1 [Example 50, 2′-amino-N-(2-methyl-6-morpholino-2H-indazol-5-yl)-[2,4′-bipyridine]-6-carboxamide hydrochloride] | 86 | 95 |  |  |
| Cn1cc2cc(NC(=O)c3cccc(-c4cccc(N)n4)n3)c(C3CC3)cc2n1 [Example 51, 6′-amino-N-(6-cyclopropyl-2-methyl-2H-indazol-5-yl)[2,2′-bipyridine]-6-carboxamide hydrochloride] | 57 | 92 |  |  |
| Cn1cc2cc(NC(=O)c3cccc(-c4ccnc(N)c4)n3)c(C3CC3)cc2n1 [Example 52, 2′-amino-N-(6-cyclopropyl-2-methyl-2H-indazol-5-yl)-[2,4′-bipyridine]-6-carboxamide] | 93 | 96 |  |  |
| Cn1cc2cc(NC(=O)c3cc(-c4ccc(N)nc4)ccn3)c(N3CCCCC3)cc2n1 [Example 53, 6-amino-N-(2-methyl-6-(piperidin-1-yl)-2H-indazol-5-yl)-[3,4′-bipyridine]-2′-carboxamide hydrochloride] | 0 | 13 |  |  |
| O=C(Nc1cc2cn(C3CCNCC3)nc2cc1C1CC1)c1cccc(N2CCC(O)C2)n1 (stereo not shown) [Example 54, N-(6-cyclopropyl-2-(piperidin-4-yl)-2H-indazol-5-yl)-6-(3-hydroxypyrrolidin-1-yl)picolinamide hydrochloride] | 95 | 96 |  |  |
| O=C(Nc1cc2cn(CCN3CCOCC3)nc2cc1C1CC1)c1cccc(N2CCC(O)C2)n1 (stereo not shown) [Example 55, N-(6-cyclopropyl-2-(2-morpholinoethyl)-2H-indazol-5-yl)-6-(3-hydroxypyrrolidin-1-yl)picolinamide] | 92 | 95 |  |  |
| CN1CCC(n2cc3cc(NC(=O)c4cccc(N5CCC(O)C5)n4)c(C4CC4)cc3n2)CC1 (stereo not shown) [Example 56, N-(6-cyclopropyl-2-(1-methylpiperidin-4-yl)-2H-indazol-5-yl)-6-(3-hydroxypyrrolidin-1-yl)picolinamide hydrochloride] | 20 | 71 |  |  |
| Cn1cc2cc(NC(=O)c3cccc(N4CC[C@@H](O)C4)n3)c(N3CCCCC3)cc2n1 [Example 57, (R)-6-(3-hydroxypyrrolidin-1-yl)-N-(2-methyl-6-(piperidin-1-yl)-2H-indazol-5-yl)picolinamide] | 96 | 101 |  |  |
| Cn1cc2cc(NC(=O)c3cccc(N4CC[C@@H](OC(=O)CN)C4)n3)c(N3CCCCC3)cc2n1 [Example 58, (R)-1-(6-((2-methyl-6-(piperidin-1-yl)-2H-indazol-5-yl)carbamoyl)pyridin-2-yl)pyrrolidin-3-yl glycinate 2,2,2-trifluoroacetate] | 91 | 96 |  |  |
| Cc1ccc(C(=O)Nc2cc3cn(C)nc3cc2N2CCCCC2)nc1N1CCC(O)C1 (stereo not shown) [Example 59, 6-(3-hydroxypyrrolidin-1-yl)-5-methyl-N-(2-methyl-6-(piperidin-1-yl)-2H-indazol-5-yl)picolinamide] | 74 | 91 |  |  |
| Cc1ccc(C(=O)Nc2cc3cn(C)nc3cc2N2CCCCC2)nc1N1CCC(O)CC1 [Example 60, 6-(4-hydroxypiperidin-1-yl)-5-methyl-N-(2-methyl-6-(piperidin-1-yl)-2H-indazol-5-yl)picolinamide] | 73 | 97 |  |  |
| COCCn1cc2cc(NC(=O)c3cccc(N4CCC(O)C4)n3)c(N3CCCCC3)cc2n1 (stereo not shown) [Example 61, 6-(3-hydroxypyrrolidin-1-yl)-N-(2-(2-methoxyethyl)-6-(piperidin-1-yl)-2H-indazol-5-yl)picolinamide] | 94 | 97 |  |  |
| COc1ccc(C(=O)Nc2cc3cn(C)nc3cc2N2CCCCC2)nc1N1CCC(O)C1 (stereo not shown) [Example 62, 6-(3-hydroxypyrrolidin-1-yl)-5-methoxy-N-(2-methyl-6-(piperidin-1-yl)-2H-indazol-5-yl)picolinamide] | 9 | 21 |  |  |
| Cn1cc2cc(NC(=O)c3ccnc(N4CCC(O)C4)n3)c(N3CCCCC3)cc2n1 (stereo not shown) [Example 63, 2-(3-hydroxypyrrolidin-1-yl)-N-(2-methyl-6-(piperidin-1-yl)-2H-indazol-5-yl)pyrimidine-4-carboxamide] | 79 | 96 |  |  |
| O=C(Nc1cc2cn(CCN3CCOCC3)nc2cc1N1CCCCC1)c1cccc(N2CCC(O)C2)n1 (stereo not shown) [Example 64, 6-(3-hydroxypyrrolidin-1-yl)-N-(2-(2-morpholinoethyl)-6-(piperidin-1-yl)-2H-indazol-5-yl)picolinamide] | 96 | 97 |  |  |
| Cn1cc2cc(NC(=O)c3cncc(N4CCC(O)C4)n3)c(N3CCCCC3)cc2n1 (stereo not shown) [Example 65, 6-(3-hydroxypyrrolidin-1-yl)-N-(2-methyl-6-(piperidin-1-yl)-2H-indazol-5-yl)pyrazine-2-carboxamide] | 91 | 98 |  |  |
| Cn1cc2cc(NC(=O)c3cncc(N4CCC(O)C4)n3)c(C3CC3)cc2n1 (stereo not shown) [Example 66, N-(6-cyclopropyl-2-methyl-2H-indazol-5-yl)-6-(3-hydroxypyrrolidin-1-yl)pyrazine-2-carboxamide hydrochloride] | 23 | 75 |  |  |
| Cl.Cn1cc2cc(NC(=O)c3cncc(N4CCC(O)C4)n3)c(N3CCCCC3)cc2n1 (stereo not shown) [Example 67, 6-(3-hydroxypyrrolidin-1-yl)-N-(2-methyl-6-(piperidin-1-yl)-2H-indazol-5-yl)pyrazine-2-carboxamide hydrochloride] |  |  | 82 | 92 |
| Cn1cc2cc(NC(=O)c3cccc(N4CCC(O)C4)n3)c(N3CCOCC3)cc2n1 (stereo not shown) [Example 68, 6-(3-hydroxypyrrolidin-1-yl)-N-(2-methyl-6-morpholino-2H-indazol-5-yl)picolinamide] | 75 | 96 |  |  |
| Cn1cc2cc(NC(=O)c3cc(N4CCC(O)C4)ccn3)c(N3CCCCC3)cc2n1 (stereo not shown) [Example 69, 4-(3-hydroxypyrrolidin-1-yl)-N-(2-methyl-6-(piperidin-1-yl)-2H-indazol-5-yl)picolinamide] | 7 | 9 |  |  |
| Cc1cc2nn(C)cc2cc1NC(=O)c1cccc(N2CCC(O)C2)n1 (stereo not shown) [Example 70, N-(2,6-dimethyl-2H-indazol-5-yl)-6-(3-hydroxypyrrolidin-1-yl)picolinamide] | 27 | 82 |  |  |
